What was measured:
[1] = system: Human DU145 Prostatic Carcinoma cells; assay: Antitumor Efficacy Assay (Protocol D): DU145 tumor growth inhibition in Balb nu/nu mice; format: in vivo, human tumor in Balb nu/nu mice; details: 100 mg/kg b.i.d., i.p., day +1 to day +20; p<0.01, Dunnett method
Source text: The novel compounds of formula (I) can be used in a method of treatment of the human or animal body by therapy. The condition of a human or animal patient may thus be improved. In particular, compounds the present invention can be used to limit the local growth of established tumors, and to limit growth of secondary metastases. The following protocol was used to evaluate the antitumoral efficacy in vivo of the compounds of the present invention:
Human DU145 Prostatic Carcinoma cells (2×10^6) were injected subcutaneously at day 0 in Balb nu/nu mice. Treatment with inhibitor (i.p. injection) started at day +1 and terminated at day +20. Animal were sacrificed at day +21, and the tumors exised and weighted. Percent tumor growth inhibition vs. control mice (% TGI) was calculated as follows:
% TGI=100-(Mean Tumor Weight in treated group)/(Mean Tumor Weight in […]

[2] = biological target: T1, MMP-3 (human stromelysin-1) (Homo sapiens, UniProt P08254); assay: Biochemical Assay (Protocol A): inhibition of human stromelysin-1, fluorimetric peptide substrate; details: MMP-3, pH 7.4, 37° C.
T1 construct: host or cells: E. coli or baculovirus-infected Sf9 insect cells
T1 sequence (P08254 100-477): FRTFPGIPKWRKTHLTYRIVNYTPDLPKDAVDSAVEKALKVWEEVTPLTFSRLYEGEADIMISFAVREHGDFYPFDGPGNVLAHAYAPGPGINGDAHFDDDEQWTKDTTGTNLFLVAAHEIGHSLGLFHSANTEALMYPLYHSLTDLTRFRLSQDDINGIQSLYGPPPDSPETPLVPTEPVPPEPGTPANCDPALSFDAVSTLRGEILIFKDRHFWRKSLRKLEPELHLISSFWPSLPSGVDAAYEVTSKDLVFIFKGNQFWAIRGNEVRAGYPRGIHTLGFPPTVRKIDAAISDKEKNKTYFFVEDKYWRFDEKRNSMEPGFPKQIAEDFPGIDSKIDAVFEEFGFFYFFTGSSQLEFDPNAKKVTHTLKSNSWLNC
Source text: (§1) As mentioned above, although low molecular weight MMP inhibitors, including hydroxamates of general formula (A), are already known, there is a strong need for better and diversified molecules for their use in medicine, that is in particular in the control or prevention of degenerative joint diseases such as rheumatoid arthritis and osteoarthritis, or in the management of multiple sclerosis, or in the treatment of invasive tumors. […] For example, the following protocol was used to assess the biochemical activity of compounds of formula (I) against MMP-1, MMP-2, and MMP-3 (respectively, human interstitial collagenase, gelatinase A, and stromelysin-1).
(§2) Human gelatinase-A (MMP-2) was obtained as pro-enzyme (72 kDa) and was activated with 1 mM 4-aminophenylmercuric acetate for 30 min at 37° C. immediately prior to use. Human stromelysin-1 (MMP-3) was obtained as a recombinant pro-enzyme isolated either from E. coli or from baculovirus infected Sf9 insect cells and activated either by heat (1 h, 55° C.) or by 5 mg/l trypsin (30 min, 37° C.) before addition of soybean trypsin inhibitor, finally removed by centrifugation.
(§3) All enzyme assays to determine values of the enzyme-inhibitor dissociation constants were performed using the peptide substrate (7-methoxycoumarin-4-yl)Acetyl-Pro-Leu-Gly-Leu-(3-[2,4-dinitrophenyl]-L-2,3-diaminopropionyl)-Ala-Arg-NH2 (Mca-Pro-Leu-Gly-Leu-Dpa-Ala-Arg--NH2) (C. G. Knight et al., FEBS Lett. 296:263-266, 1992). The enzymes cleave at the Gly-Leu bond removing the internally quenching Dpa group. The release of the highly fluorescent peptide Mca-Pro-Leu was followed fluorimetrically setting the excitation wavelength at 326 nm (bandwidth 5 nm) and the emission at 392 nm (bandwidth 20 nm).
(§4) Continuous fluorescence assay was carried out using a Perkin Elmer LS-50 Fluorescence Spectrophotometer fitted with a thermostatted four position stirring cell changer. Inhibitors were dissolved in the assay buffer ([…] Tris/HCl pH 7.4 containing 0.15 M NaCl, 10 mM CaCl2, 0.01 mM ZnCl2 and 0.05% Brij 35) thermostatted at 37° C. The reaction was started by the addition of substrate ([…]), followed by the addition of the enzyme (e.g. 1.0 nM collagenase, 0.04 nM gelatinase, or 3.0 nM stromelysin) and the increase in fluorescence was monitored over 30 min. The run was repeated at different concentrations of inhibitors in the range 0.1-10000 nM and data at inhibitor concentration in the region if their enzyme-inhibitor dissociation constants were used for calculation.
(§5) Substrate consumption was within 5% of the initial concentration and data outside this range were discarded. The Michaelis constants (Km) for the enzyme-substrate complexes is […] or greater (C. G. Knight et al., reference above), so that the factor (1+S/Km) can be approximated to unity without appreciable error.

[3] = biological target: T2, MMP-2 (human gelatinase A) (Homo sapiens, UniProt P08253); assay: Biochemical Assay (Protocol A): inhibition of human gelatinase A, fluorimetric peptide substrate; details: MMP-2, pH 7.4, 37° C.
T2 sequence (P08253 110-660): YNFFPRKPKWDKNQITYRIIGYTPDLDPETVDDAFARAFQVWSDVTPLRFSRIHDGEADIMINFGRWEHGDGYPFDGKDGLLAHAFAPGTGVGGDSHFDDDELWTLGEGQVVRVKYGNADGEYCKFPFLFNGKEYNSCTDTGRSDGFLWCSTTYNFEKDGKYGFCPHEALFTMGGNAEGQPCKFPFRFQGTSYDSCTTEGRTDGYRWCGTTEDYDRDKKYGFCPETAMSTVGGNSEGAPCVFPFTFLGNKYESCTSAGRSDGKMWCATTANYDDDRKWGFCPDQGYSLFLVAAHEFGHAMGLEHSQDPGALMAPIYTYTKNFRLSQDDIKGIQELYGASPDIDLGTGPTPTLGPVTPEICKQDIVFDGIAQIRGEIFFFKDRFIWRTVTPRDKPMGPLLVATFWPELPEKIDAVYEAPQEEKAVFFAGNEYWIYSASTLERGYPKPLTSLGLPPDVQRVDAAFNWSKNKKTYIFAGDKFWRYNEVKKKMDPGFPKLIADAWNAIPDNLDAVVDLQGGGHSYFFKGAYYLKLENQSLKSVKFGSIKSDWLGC
Source text: as §1, §2, §3, §4, §5

[4] = Pharmacokinetic Assay (Protocol C): plasma levels after i.v. and oral administration to rats; format: in vivo, rat (male Sprague-Dawley); details: 15 mg/kg
Protocol: Male rats (Sprague-Dawley; body weight about 250-300 g) were acclimatized for about one week before the start of the study. […] Before treatment, rats were overnight fasted. For each compound to be assessed, three rats were treated intravenously (injection in the tail vein as a bolus) with a single dose of 15 mg/kg (as free base or free acid if needed) body weight. Other three rats were treated orally (single bolus dose by gastric gavage) with 15 mg/kg of the same compound. In same cases, according to the detection limit of each particular compound, and its availability in stock, these standard doses were modified as needed.
Blood samples were collected into syringes especially prepared for use with the cannulated animals via the SCV cannula. Under standard conditions, blood samples (0.2 mL) were transferred into heparinized tubes at the following times: 0 (pre-dose), 2, 4, 8, 16, 30, 45, 60, 90 min, 2, 4, 6, 8 and 24 h after iv administration; 0 (pre-dose), 5, 10, 30, 45, 60, 90 min, 2, 4, 6, 8, and 24 h after oral administration. Plasma was obtained immediately by centrifugation (about 10,000 rpm for 3 min) and stored at -80° C. till analysis. Plasma samples were assayed for parent drug concentrations using an appropriate analytical method. Under standard conditions, liquid chromatography--tandem mass spectrometry (LC/MS-MS) was used.
Non-compartmental pharmacokinetic calculations were performed with the aid of Pharm-NCA package (SIMED, France). Maximum plasma concentration, Cmax, and the corresponding time, tmax, were read as the coordinates of the highest raw-data point for individual plasma profiles. Terminal phase was evaluated by graphic judgement by eye; terminal rate constant, was calculated as the slope of the terminal linear portion of natural log-transformed plasma concentrations vs. time curve, obtained using linear regression. Terminal half-life, t1/2,z, was calculated as ln(2)/lz. The area under the plasma concentration-time curve was estimated by the linear trapezoidal rule up to the last measured concentration (AUC(0-tz)) and extrapolated to infinity assuming monoexponential decay, using the formula AUC=AUC(0-tz)+C(tz)/lz, where C(tz) is the measured concentration of the last point with detectable concentration. Following iv dosing, systemic clearance was obtained using the formula Cl=Dose/AUC. According to Protocol C, the pharmacokinetic in rats of some representative compounds within the present invention was evaluated. Significant pharmacokinetic data obtained in rats at a 15 mg/kg dose were as follows: […]

[5] = biological target: T3, MMP-1 (human interstitial collagenase) (Homo sapiens, UniProt P03956); assay: Biochemical Assay (Protocol A): inhibition of human collagenase, fluorimetric peptide substrate; details: MMP-1, pH 7.4, 37° C.
T3 construct: truncated recombinant enzyme encompassing residues 101-269
T3 sequence (P03956 101-269): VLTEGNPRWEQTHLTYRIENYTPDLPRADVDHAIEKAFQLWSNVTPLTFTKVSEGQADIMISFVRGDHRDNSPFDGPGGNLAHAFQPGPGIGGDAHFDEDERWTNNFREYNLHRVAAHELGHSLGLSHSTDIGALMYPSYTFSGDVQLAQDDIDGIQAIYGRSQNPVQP
Source text: as §1, §2, §3, §4, §5

In the case of `CNC(=O)[C@@H](NC(=O)[C@H](CC(C)C)[C@](O)(COC(=O)NC1CCCCC1)C(=O)NO)C(C)(C)C` [Example 16, [(2R,3S)-3-(N-Cyclohexylaminocarbonyl)oxymethyl-3-hydroxy-4-hydroxyamino-2-isobutylsuccinyl]-L-tert-leucine-N-methylamide], the “TGI (percent tumor growth inhibition vs. control)” value [1] is reported as 83%, the Ki [2] is reported as 23 nM and the Ki [3] is reported as 3.2 nM. The “plasma clearance compared with literature hydroxamic acid MMP inhibitors” value ([4]; to our best knowledge) was “inferior to that reported for any hydroxamic acid MMP inhibitor disclosed in the literature”, the AUC iv ([4]; iv) was 1.35 mg·min/mL and the half-life ([4]; rat, plasma, terminal half-life, read-out: t1/2,z (converted)) was 2.3 h. It also gave a clearance ([4]; rat, plasma, iv) of 11 mL/min/kg, an AUC ([4]; rat, plasma, oral) of 1330 ng·h/mL and a Ki [5] of 1.5 nM.
